Patent US6838574B1, “Dicarba-closo-dodecarborane derivatives” (Institute of Medicinal Molecular Design, Inc., priority 1999, dated 2005)

Molecular target: T1, rat estrogen receptor (pCI-rER α) (Rattus norvegicus, UniProt P06211)
T1 construct: expressed in transfected cells; host or cells: COS-1 cells
T1 sequence (P06211 1-600): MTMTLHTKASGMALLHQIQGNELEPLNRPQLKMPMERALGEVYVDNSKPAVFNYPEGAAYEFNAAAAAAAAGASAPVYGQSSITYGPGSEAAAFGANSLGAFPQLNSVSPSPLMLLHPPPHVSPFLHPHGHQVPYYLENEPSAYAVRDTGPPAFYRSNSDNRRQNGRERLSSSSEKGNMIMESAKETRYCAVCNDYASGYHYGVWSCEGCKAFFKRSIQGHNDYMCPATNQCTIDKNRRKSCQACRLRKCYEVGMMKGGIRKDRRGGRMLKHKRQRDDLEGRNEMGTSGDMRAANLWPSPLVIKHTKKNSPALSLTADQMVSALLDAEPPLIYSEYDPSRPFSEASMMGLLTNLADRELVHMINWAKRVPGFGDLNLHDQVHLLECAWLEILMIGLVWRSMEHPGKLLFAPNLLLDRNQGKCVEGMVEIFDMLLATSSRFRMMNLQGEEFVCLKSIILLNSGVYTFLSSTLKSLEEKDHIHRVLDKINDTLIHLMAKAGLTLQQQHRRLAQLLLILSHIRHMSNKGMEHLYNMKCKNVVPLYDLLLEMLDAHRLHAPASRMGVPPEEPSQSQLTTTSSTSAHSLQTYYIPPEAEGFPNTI
Assay: Estrogenic activity, estrogen receptor-dependent luciferase reporter gene assay in COS-1 cells
Format: cell-based
Conditions: for Relative Activity (%) at the Same Amount of β-estradiol: β-estradiol = 100; for EC50: 50% of luciferase activity of β-estradiol at 10 nM (=100), COS-1
Description: As estrogenic activity, estrogen receptor-dependent transcriptional activation abilities of the test compounds were determined by the r porter gene assay using luciferase gene. COS-1 cells were cultured using a DMEM medium containing an antibiotics and 5% bovine fetal serum in the wells of 24 well plates (cell density: 5 to 6×10^4/well) at 37° C. for one night under 5% carbon dioxide. On the next day, the medium was changed to DMEM medium not containing Phenol Red. Using gene introducing reagent Tfx-20 (Promega), reporter plasmid EREx3-pGL-TK, in which rat estrogen receptor expression plasmid pCI-rER α and an estrogen responsive sequence were placed upstream of the luciferase gene, and β-galactosidase expression plasmid pCMV β used as an internal standard were introduced into cells. The cells were cultured for 2 h, and the medium was changed to DMEM not containing Phenol Red but containing active charcoal-treated serum.
The culture was added with each test compound dissolved in ethanol at various concentrations (final ethanol concentration at 0.5%) and then cultivation was continued at 37° C. for one night under 5% carbon dioxide. On the next day, the cells were lysed and enzymatic activity of luciferase expressed was measured by using a chemiluminometer. The values were standardized based on galactocidase enzymatic activity, and then compared with the values obtained by experiments using no test compound and used as values of activity at various concentrations. […] The estrogenic activities in the table are shown as concentrations for 50% activity (EC50 values) which give 50% activities relative to luciferase activity regarded as 100 that is expressed by treatment with the control compound β-estradiol at 10 nM. Each compound tested in this experiment has a high estrogenic activity.
Estrogenic activities, i.e., estrogen receptor-dependent transcriptional abilities of test compounds, were determined by the reporter gene assay using the luciferase gene in the same manner as those described above. In this experiment (Table 6), estrogenic activities at 0.1 nM, 1 nM, and 10 nM of the test compounds are shown as relative values in view of the luciferase activity regarded as 100 which is expressed at the same amounts of β-estradiol as a control, and intensities of activities were compared. Each compound tested in this experiment has high estrogenic activity.

[1] = relative activity experiment (Table 6)

Substance	Relative Activity (%) at the Same Amount of β-estradiol (0.1 nM)	Relative Activity (%) at the Same Amount of β-estradiol (1 nM)	Relative Activity (%) at the Same Amount of β-estradiol (10 nM)	EC50	estrogenic activity compared with β-estradiol (in words) (EC50 experiment (Table 5))	estrogenic activity compared with β-estradiol (in words) [1]
1-(4-hydroxyphenyl)-1,12-dicarba-closo-dodecaborane [BE100]	51%	63%	82%	0.7 nM	much higher activity than that of β-estradiol	–
1-(3-hydroxyphenyl)-1,12-dicarba-closo-dodecaborane [BE300]	–	20%	59%	–	–	–
1-hydroxy-7-(3-hydroxyphenyl)-1,7-dicarba-closo-dodecaborane [BE419]	–	14%	38%	–	–	–
1-(3-hydroxypropyl)-12-(3-hydroxyphenyl)-1,12-dicarba-closo-dodecaborane [BE323]	–	12%	31%	–	–	–
1-methoxycarbonyl-12-(4-hydroxyphenyl)-1,12-dicarba-closo-dodecaborane [BE110]	–	–	–	2 nM	–	–
1-hydroxy-7-(4-hydroxyphenyl)-1,7-dicarba-closo-dodecaborane [BE219]	–	40%	71%	–	–	–
1-(3-hydroxypropyl)-12-(4-hydroxyphenyl)-1,12-dicarba-closo-dodecaborane [BE123]	29%	56%	79%	–	–	–
1-amino-12-(4-hydroxyphenyl)-1,12-dicarba-closo-dodecaborane [BE140]	–	–	–	0.5 nM	much higher activity than that of β-estradiol	–
1-hydroxy-12-(3-hydroxy phenyl)-1,12-dicarba-closo-dodecaborane [BE319]	–	53%	72%	–	–	–
1-hydroxy-12-(4-hydroxyphenyl)-1,12-dicarba-closo-dodecaborane [BE119]	133%	132%	120%	–	–	much higher activities than that of β-estradiol
1-(2-hydroxyethyl)-12-(4-(hydroxyphenyl)-1,12-dicarba-closo-dodecaborane [BE122]	83%	98%	104%	–	–	–
1-(2-hydroxyethyl)-12-(3-hydroxyphenyl)-1,12-dicarba-closo-dodecaborane [BE322]	–	43%	85%	–	–	–
1-(2-hydroxymethyl)-7-(3-hydroxyphenyl)-1,7-dicarba-closo-dodecaborane [BE420]	–	18%	59%	–	–	–
1-(3-hydroxyphenyl)-1,7-dicarba-closo-dodecaborane [BE400]	–	11%	38%	–	–	–
1,12-bis(4-hydroxyphenyl)-1,12-dicarba-closo-dodecaborane [BE160]	–	–	–	1 nM	–	–
1-(2-hydroxyethyl)-7-(3-hydroxyphenyl)-1,7-dicarba-closo-dodecaborane [BE422]	–	11%	24%	–	–	–
1,7-bis(4-hydroxyphenyl)-1,7-dicarba-closo-dodecaborane [BE260]	–	–	–	1 nM	–	–
1-hydroxymethyl-12-(4-hydroxyphenyl)-1,12-dicarba-closo-dodecaborane [BE120]	212%	163%	126%	0.05 nM	much higher activity than that of β-estradiol	much higher activities than that of β-estradiol
